Data from PMC8007834, “Anti-estrogenic and anti-aromatase activities of citrus peels major compounds in breast cancer” (Scientific Reports, 2021).
Converted amounts (≈) assume the structure as drawn.

Key:
[1] = tested on: Ehrlich ascites carcinoma (EAC) solid tumor; test: Ehrlich ascites carcinoma (EAC) solid tumor model, tumor volume; format: in vivo, mice; settings: 19th day after treatment; quercetin 100, naringenin 50, naringin 100 mg/kg i.p. daily
Text: In order to evaluate the anticancer effect of the active isolates (quercetin, naringenin and naringin) and their potential to decrease aromatase levels in tumours, an animal model of Ehrlich ascites carcinoma (EAC) solid tumour was used followed by aromatase ELISA assay as will be described later. Swiss albino female mice (20-25 g) were used for the experiment. EAC cells were collected from the ascitic fluid of a female Swiss albino mouse bearing a 10-day old ascitic tumor where approximately 2.5 × 10^6 cells were transplanted, i.m. in the left thigh of female mice. When tumors became palpable (approximately 200-300 mm^3 in volume), treatment was initiated. Forty EAC-tumour bearing mice were randomly allocated into the following groups (n = 10): (1) PC group: positive control group that received only drug vehicle, (2) Qrt.-treated group: Mice were treated with a daily dose of 100 mg/kg of quercetin[30] i.p., (3) Narn.-treated group: Mice were treated with a daily dose of 50 mg/kg of naringenin, i.p.[31], and (4) Nar.-treated group: […] Treatment doses were given daily excluding Fridays and Saturdays. Tween 80 (1%) was used as a vehicle. Mice were sacrificed under brief anaesthesia at the 20th day after starting treatment and tumors were collected for further analysis. Tumor volume was calculated using a digital caliper at days 0, 4, 7, 10, 13, 16, and 19 after treatment, according to the following equation[33]: […]

Aromatase = Aromatase protein levels in EAC solid tumors (ELISA); format: in vivo, mice; settings: for aromatase levels in tumors, lower than positive control group: ELISA on tumor homogenates, day 20, quercetin 100, naringenin 50, naringin 100 mg/kg i.p.
Text: EAC cells were collected from the ascitic fluid of a female Swiss albino mouse bearing a 10-day old ascitic tumor where approximately 2.5 × 10^6 cells were transplanted, i.m. in the left thigh of female mice. When tumors became palpable (approximately 200–300 mm^3 in volume), treatment was initiated. Forty EAC-tumour bearing mice were randomly allocated into the following groups (n = 10): (1) PC group: positive control group that received only drug vehicle, (2) Qrt.-treated group: Mice were treated with a daily dose of 100 mg/kg of quercetin[30] i.p., (3) Narn.-treated group: Mice were treated with a daily dose of 50 mg/kg of naringenin, i.p.[31], and (4) Nar.-treated group: Mice were treated with a daily dose of 100 mg/kg of naringin, i.p.[32]. Treatment doses were given daily excluding Fridays and Saturdays. Tween 80 (1%) was used as a vehicle. Mice were sacrificed under brief anaesthesia at the 20th day after starting treatment and tumors were collected for further analysis.
Excised tumors were homogenized as 10% (w/v) in phosphate buffered saline. Aromatase concentration was then determined in tissue homogenates using Mouse Aromatase ELISA kit (MyBiosource, USA), according to the manufacturer’s instructions. Optical density equivalent to aromatase levels in samples was determined at 450 nm using a microplate reader.

[2] = tested on: Immature female Swiss albino mice; test: In vivo anti-estrogenic activity assay (with estradiol); settings: for reversal of estradiol-induced vaginal cornification / reduction in uterine weight compared to estradiol alone: 30 mg/kg i.p. plus estradiol; for reduction in uterine weight compared to estradiol alone: 7 days; for day on which vaginal opening reached 100% / day on which vaginal opening started (delay up to day): flavonoid 30 mg/kg i.p. plus estradiol 12.5 µg/kg s.c., estradiol alone as positive control
Method: (§1) Immature female Swiss albino mice (8-13 g) were obtained from the animal house of the Faculty of Pharmacy, The British University in Egypt. All experimental procedures were conducted in compliance with the Animal Research: Reporting of In Vivo Experiments (ARRIVE) guidelines and the National Institutes of Health guide for the care and use of Laboratory animals (NIH Publication No. 85-23, revised 2011) and were approved by the Ethics Committee, Faculty of Pharmacy, The British University in Egypt (Ex-2101). All experiments were performed during the light phase of a light/dark cycle that was started 1 week after acclimatization. The room temperature was adjusted at 25 ± 2 °C. Mice had free access to food and water during the experiments. The experimental design was adopted from[27],[28]. The mice were randomly divided into 9 groups (7-8 mice each) as follows: Group 1: Negative control (NC) receiving only olive oil, s.c.; Group 2: […] For estrogenic activity, Group 3: Genistein phytoestrogen positive control (Gein.) treated group; Group 4: Quercetin (Qrt.) treated group; Group 5: Naringenin (Narn.) treated group and Group 6: Naringin (Nar.) treated group. For anti-estrogenic activity, estradiol was given after treatments by 6 h for Groups 7, 8 and 9 representing […]., respectively. All treatments including genistein were given at a dose of 30 mg/kg dissolved in Tween 80 (1%), i.p., for 7 days. The animals' weights were recorded daily to ensure the safety of the doses used. On the 7th day, the animals were sacrificed, the morphological appearance of the livers was observed, and the uteri were also isolated and weighed. The in vivo estrogenic and anti-estrogenic activities were assessed. The vaginal opening on each day of the study was checked as a sign of puberty. On the 7th day, vaginal swab was taken from the opened vagina to examine the cornification level under light microscope (4× lens). The uteri were excised and weighed after sacrification of mice under anesthesia.

T47D = test: SRB cytotoxicity assay on T47D; format: cell-based, human; settings: ± SD; for IC50: Homo sapiens, T47D, read-out: IC50 values, cytotoxic effect on T47D
Method: (§2) The assessment was performed in the National Cancer Institute in Egypt (NCI). The half maximal inhibitory concentration (IC50) values were then calculated from three independent experiments, three replicates each for each sample.

MCF-7 = test: SRB cytotoxicity assay on MCF7; format: cell-based, human; settings: for IC50: Homo sapiens, MCF7, ± SD, read-out: IC50 values, cytotoxic effect on MCF7
Method: as §2

[3] = tested on: Immature female Swiss albino mice; test: In vivo estrogenic activity assay; settings: 30 mg/kg i.p., 7 days, no estradiol
Method: as §1

uterine weight = tested on: uterine weight; set-up: method as in PMID 25337190; settings: cited from earlier work
[4] = SRB cytotoxicity assay on normal HFB4 cells; format: cell-based, human; settings: human, normal HFB4 cells, ± SD, read-out: IC50 values, cytotoxic effect on HFB4
Method: (§3) The cytotoxic activity of the ethanolic extracts of the peels along with the isolated major phenolics was tested against two human estrogen-dependent breast cancer cell lines, namely, MCF-7 and T47D, as well as the normal human HFB4 cells for assessment of toxicity, using the sulforhodamine B (SRB) assay. The assessment was performed in the National Cancer Institute in Egypt (NCI). The half maximal inhibitory concentration (IC50) values were then calculated from three independent experiments, three replicates each for each sample.

[5] = set-up: method as in PMID 21964193; settings: naringin 40 and naringenin 80 mg/kg, respectively; cited from earlier work
[6] = tested on: estrogen-induced uterine weight; settings: 30 mg/rat co-treated with estradiol (0.5 µg/rat); cited from earlier work
HFB4 cells = test: SRB cytotoxicity assay on normal HFB4 cells; format: cell-based, human; settings: ± SD
Method: as §3

Aromatase enzyme (CYP19) = target: T1, Aromatase enzyme (CYP19) (Homo sapiens, UniProt P11511); test: In vitro aromatase inhibition assay (dibenzylfluorescein); format: biochemical; settings: ± SD
T1 construct: purchased BD Biosciences, San Jose, CA
T1 sequence (P11511 1-503): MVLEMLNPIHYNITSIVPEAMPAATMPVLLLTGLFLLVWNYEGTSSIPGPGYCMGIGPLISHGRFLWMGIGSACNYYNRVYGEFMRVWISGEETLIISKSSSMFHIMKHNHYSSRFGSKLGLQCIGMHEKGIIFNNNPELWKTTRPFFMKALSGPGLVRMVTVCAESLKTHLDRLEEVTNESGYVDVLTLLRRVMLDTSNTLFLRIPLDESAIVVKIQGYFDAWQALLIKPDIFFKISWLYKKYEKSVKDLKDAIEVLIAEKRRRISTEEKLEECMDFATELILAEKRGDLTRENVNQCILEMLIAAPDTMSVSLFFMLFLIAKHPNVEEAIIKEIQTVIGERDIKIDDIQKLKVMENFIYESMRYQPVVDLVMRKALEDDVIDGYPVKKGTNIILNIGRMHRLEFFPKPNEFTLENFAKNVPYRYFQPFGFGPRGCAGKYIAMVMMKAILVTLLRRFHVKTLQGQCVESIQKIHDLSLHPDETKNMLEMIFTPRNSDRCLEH
Method: Aromatase inhibition was quantified by measuring the fluorescent intensity of fluorescein, the hydrolysis product of dibenzylfluorescein, by aromatase, as previously described[29]. In brief, the test substance (10 µL) was pre-incubated with the NADPH regenerating system (90 µL of 2.6 mM NADP^+, 7.6 mM glucose 6-phosphate, 0.8 U/mL glucose 6-phosphate dehydrogenase, 13.9 mM MgCl2, and 1 mg/mL albumin in 50 mM potassium phosphate, pH 7.4) for 10 min at 37 °C before 100 µL of the enzyme and substrate mixture [4 pmol/well enzyme (CYP19, BD Biosciences, San Jose, CA), 0.4 µM dibenzylfluorescein, and 4 mg/mL albumin in 50 mM potassium phosphate, pH 7.4] were added. Then, the reaction mixture was incubated for 30 min at 37 °C to allow aromatase to generate the product and quenched with 75 µL of 2 N NaOH. After the reaction was terminated, shaking was done for 5 min followed by incubation for 2 h at 37 °C to enhance the noise/background ratio, then fluorescence was measured at 485 nm (excitation) and 530 nm (emission). Three independent experiments were performed in duplicates, and the average values were used to construct the dose–response curves.

SMILES | decrease in tumor volume compared to positive control [1] | aromatase levels in tumors, lower than positive control group (Aromatase) | reversal of estradiol-induced vaginal cornification [2] | reduction in uterine weight compared to estradiol alone [2] | day on which vaginal opening reached 100% [2] | day on which vaginal opening started (delay up to day) [2] | IC50 (T47D) | IC50 (MCF-7) | average uterine weight [3] | IC50 [4] | estrogenic and anti-estrogenic activities [5] | also measured
O=c1c(O)c(-c2ccc(O)c(O)c2)oc2cc(O)cc(O)c12 [C2, 5,7,3′,4′-tetrahydroxy flavonol] | 61.71% | 72.35% | not fully reversed | 48% | 4 days | 2 days | 1.81 ± 0.28 µg/mL (≈ 5.99 µM) | 2.11 ± 0.71 µg/mL (≈ 6.98 µM) | 13.0 ± 3.0 mg | > 50 µg/mL |  | reduction in aromatase levels as compared to naringenin (Aromatase; EAC tumors, ELISA): 26.4%; reduction in aromatase levels as compared to naringin (Aromatase; EAC tumors, ELISA): 32%; day on which vaginal opening started [3]: 6 days; effect on the uterine weight upon treatment with steroid (uterine weight; 10 mg/kg): anti-estrogenic effect; estrogenic effect at higher dose (uterine weight; 100 mg/kg): potent estrogenic effect
O=C1CC(c2ccc(O)cc2)Oc2cc(O)cc(O)c21 (centres unmarked) [C4, 5,7,4′-trihydroxy flavanone] | 73.26% |  | not fully reversed | 58% | 7 days | 5 days | 1.93 ± 0.07 µg/mL (≈ 7.09 µM) | 1.12 ± 0.09 µg/mL (≈ 4.11 µM) | 16.0 ± 3.7 mg | > 50 µg/mL | double directional estrogenic and anti-estrogenic activities | effect on estrogen-induced uterine weight [6]: significant decrease in estrogen-induced uterine weight
COc1ccc([C@@H]2CC(=O)c3c(O)cc(O[C@@H]4O[C@H](CO[C@@H]5O[C@@H](C)[C@H](O)[C@@H](O)[C@H]5O)[C@@H](O)[C@H](O)[C@H]4O)cc3O2)cc1O [C5, 5,3′-dihydroxy-4′-methoxy flavanone-7O-α-L-rhamnopyranosyl (1 → 6)β-D-glucopyranoside] |  |  |  |  |  |  |  |  |  |  |  | IC50 values, cytotoxic effect on T47D (T47D): – ((−) no activity in a concentration up to 50 µg/mL); IC50 values, cytotoxic effect on MCF7 (MCF-7; ± SD): – ((−) no activity in a concentration up to 50 µg/mL); IC50 values, cytotoxic effect on HFB4 (HFB4 cells): – ((−) no activity in a concentration up to 50 µg/mL)
C[C@@H]1O[C@@H](O[C@H]2[C@H](Oc3cc(O)c4c(c3)O[C@H](c3ccc(O)cc3)CC4=O)O[C@H](CO)[C@@H](O)[C@@H]2O)[C@H](O)[C@H](O)[C@H]1O [C8] | 71.47% | 59.36% | not fully reversed | 57.7% | 7 days | 3 days | 3.63 ± 0.1 µg/mL (≈ 6.25 µM) | 2 ± 0.98 µg/mL (≈ 3.45 µM) | 17.0 ± 2.6 mg | > 50 µg/mL | double directional estrogenic and anti-estrogenic activities | IC50 (Aromatase enzyme (CYP19)): 3.26 µM
